pIC50: −log10 of the molar value. Where “and” joins values, the source holds several entries; their conditions need not be identical. Identical values can stand only once.
Tested on: 885512-296-R-J2-PDC complex spheroid growth, % test/control
Assay: Anticancer human tumor 885512-296-R-J2-PDC patient-derived breast carcinoma cell line growth inhibition [Asc]
Conditions: for viability, T/C: stronger effect = lower value
Protocol: Multicellular complex tumor spheroid response to apoptosis pathway targeting inhibitors Alrizomadlin, Pelcitoclax, and Dasminapant in combination with a variety of drugs and investigational agents in selected tumor cell lines
The MDM2 inhibitor alrizomadlin, the Bcl-2/Bcl-xL inhibitor pelcitoclax, and the IAPs inhibitor dasminapant were evaluated both individually and in combination with standard of care and investigational anticancer small molecules within a complex spheroid model of solid tumors. . Complex spheroids include a stromal component modeled by human endothelial cells (HUVEC) and fibroblasts modeled by human mesenchymal stem cells (MSCs). The concentration ranges selected for each drug and investigational agent were based upon clinically achievable concentrations if the clinical Cmax of the agent was known.
Compounds. The drugs and investigational agents: alrizomadlin (APG-115; NSC831270), pelcitoclax (APG-1252; NSC835773), dasminapant (APG-1387;NSC834197), TAK-243 (NSC785004), copanlisib (NSC809693), olaparib (NSC753686), talazoparib (NSC767125), cobimetinib (NSC 768068), eltanexor (KPT-8602, NSC 794443), abemaciclib (NSC 768073), sotorasib (NSC818433), adagrasib (NSC 831453), MRTX-1133 (NSC 836407), Iadademestat (ORY1001, NSC 806812), and RMC-4630 (NSC839698), were obtained from the NCI Developmental Therapeutics Program Chemical Repository. The FDA-approved anticancer drug set is available from the Developmental Therapeutics Program at https://dtp.cancer.gov/organization/dscb/obtaining/available plates.htm. […] The stock solutions were prepared in dimethyl sulfoxide (DMSO, Sigma-Aldrich, St. Louis, MO, cat. D2650) at 800-fold the tested concentration and stored at -70 degrees C prior to their use. All drugs and investigational agents were tested over a range starting from a high concentration at or near the clinical Cmax and decreasing in half-log increments. If the clinical Cmax for an agent had not been determined, the highest concentration tested was 10 microM.
The patient-derived cancer (PDC) cell lines include five colon adenocarcinomas: 186277-243-T-J2-PDC, 616215-338-R-J1-PDC, 439559-082-T-J2-PDC, 463943-066-T-J2-PDC, and 519858-162-T-J1-PDC; three pancreatic carcinomas: 323965-272-R-J2-PDC, 521955-158-R6-J3-PDC, and 521955-158-R2-J5-PDC; two uterine sarcomas: 327498-152-R-J2-PDC and 993429-296-R-J1-PDC; two rhabdomyosarcomas: 755483-174-R-J1-PDC and 772245-204-R-J1-PDC; two soft tissue sarcomas: 126254-015-R-J1-PDC and 494315-158-R-J1-PDC; two malignant fibrous histiocytomas: 317291-083-R-J1-PDC and 596521-263-R-J1-PDC; two breast carcinomas: 171881-019-R-J1-PDC and 885512-296-R-J2-PDC; and one ovarian carcinoma: 6556581-035-R-J-PDC were obtained from the NCI PDMR, (https://pdmr.cancer.gov). The established cell lines HSSY-2 synovial sarcoma (RRID:CVCL 8719), SYO-1 synovial sarcoma (RRID:CVCL_7146), MPNST malignant peripheral neural sheath tumor were obtained from the Sloan Kettering Institute. The following established cell lines were purchased from the American Type Culture Collection (ATCC, Manassas, VA), Sor the received from the NCI repository:, PANC-1 pancreatic carcinoma (CRL-1469, RRID:CVCL_0480), OVCAR-5 ovarian carcinoma (RRID:CVCL_1628), OVCAR-8 ovarian carcinoma (RRID:CVCL_1629), , MCF-7 breast carcinoma (CRL-12584, RRID:CVCL_0031), MDA-MB-231 breast carcinoma (CRL-12532, RRID:CVCL_0062), NCI-H1876 small cell lung carcinoma (CRL-5902, RRID:CVCL_1503), NCI-H510A small cell lung carcinoma (HTB-184, RRID:CVCL_1565), NCI-H1417 (CRL-5869, RRID:CVCL_1469), and NCI-H196 small cell lung carcinoma (CRL-5823, RRID:CVCL_1509). Dr. Peter Houghton (Greehey Children's Cancer Research Institute, University of Texas Health Science Center, San Antonio, TX) provided Rh-18 rhabdomyosarcoma (RRID:CVCL_1659). Pooled donor human umbilical vein endothelial cells (HUVEC, Lonza, cat. CC-2519) and human mesenchymal stem cells (hMSC, Lonza, cat. PT-2501) were purchased from Lonza (Walkersville, MD).
Cell Culture. […]
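Note: spheroids exposed to compounds for seven days.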
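Throughout, for viability, T/C: 100% = DMSO vehicle control wells.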

Compound | viability, T/C (compound 0.0316 µM) | viability, T/C (compound 0.1 µM) | viability, T/C (compound 0.316 µM) | viability, T/C (compound 1 µM) | viability, T/C (compound 10 µM) | pIC50 (curve of compound) | viability, T/C (compound 0.00316 µM) | viability, T/C (compound 0.01 µM) | other results
C#Cc1c(F)ccc2cc(O)cc(-c3ncc4c(N5CC6CCC(C5)N6)nc(OCC56CCCN5CC(F)C6)nc4c3F)c12 (stereo not given) | 93.6% and 96.8% and 95.3% | 103% (2×) and 91.5% | 89.2% and 72.3% and 99.9% | 99.7% and 72.6% and 93.5% | 97.2% and 80.2% and 71.9% | < 5.00 | – | – | viability, T/C (compound 3.16 µM): 101% and 93.8% and 87.5%
C=C(F)C(=O)N1CCN(c2nc(OCC3CCCN3C)nc3c2CCN(c2cccc4cccc(Cl)c24)C3)CC1CC#N (stereo not given) | 81.9% and 107% and 97.2% | 97% and 114% and 90.5% | 104% and 102% and 94.4% | 97.8% and 113% and 110% | 0.17% and 0.15% and 0.14% | 5.69 and 5.62 and 5.49 | – | – | viability, T/C (compound 3.16 µM): 22% and 31.8% and 50.9%
C=CC(=O)N1CCN(c2nc(=O)n(-c3c(C)ccnc3C(C)C)c3nc(-c4c(O)cccc4F)c(F)cc23)C(C)C1 (stereo not given) | 90.3% and 85.9% and 94.9% | 104% and 108% and 86.1% | 108% and 104% and 90.2% | 108% and 124% and 103% | 60.6% and 59.6% and 78.4% | < 5.00 | – | – | viability, T/C (compound 3.16 µM): 77.3% and 101% and 95.2%
CCN1C(C(=O)NC23CCC(C(=O)O)(CC2)CC3)C(c2cccc(Cl)c2F)C2(C(=O)Nc3cc(Cl)ccc32)C12CCCCC2 (stereo not given) | – | – | – | – | – | 5.55 and < 5.52 | – | – | viability, T/C (compound 0.00949 µM): 94.5% and 78.9%; viability, T/C (compound 0.0949 µM): 95.6% [middle of 15 runs]; viability, T/C (compound 0.949 µM): 71.9% [middle of 15 runs]; viability, T/C (compound 3 µM): 46.6% [middle of 15 runs]
CCN1CCN(Cc2ccc(Nc3ncc(F)c(-c4cc(F)c5nc(C)n(C(C)C)c5c4)n3)nc2)CC1 | 92.8% and 77.8% and 104% | 80.7% and 77.2% and 93% | 79.6% and 71.2% and 79.3% | 61.1% and 65% and 73.3% | – | < 6.00 | 89.4% and 83.8% and 88.3% | 107% and 91.6% and 85.9% | –
CNC(C)C(=O)NC1CN(S(=O)(=O)c2cccc(S(=O)(=O)N3CCC4CCC(C(=O)NC(c5ccccc5)c5ccccc5)N4C(=O)C(NC(=O)C(C)NC)C3)c2)CCC2CCC(C(=O)NC(c3ccccc3)c3ccccc3)N2C1=O (stereo not given) | – | – | – | – | – | < 6.00 | 84.1% and 81% | – | pIC50 (compound alone, run of 10/03/2022): < 6.00
COc1c(OCCCN2CCOCC2)ccc2c3n(c(=NC(=O)c4cnc(N)nc4)nc12)CCN3 | 86.8% and 80.5% and 89.4% | 74.3% and 76% and 89% | 43.6% and 43.9% and 56.3% | 6.01% and 5.98% and 9.51% | – | 6.60 and 6.59 and 6.43 | 99.3% and 90.1% and 99% | 100% and 92.6% and 92% | –
Cc1c(S(C)(=O)=O)c(-c2cc(F)cc(N3CCN(c4ccc(NS(=O)(=O)c5ccc(NC(CCN6CCC(C(=O)OCCCP(=O)(O)O)CC6)CSc6ccccc6)c(S(=O)(=O)C(F)(F)F)c5)cc4)CC3)c2)c(-c2ccc(Cl)cc2)n1C(C)C (stereo not given) | – | 84.8% [middle of 14 runs] | 86.5% [middle of 14 runs] | 88.8% [middle of 14 runs] | 114% [middle of 14 runs] | – | – | – | pIC50 (compound alone, run of 09/27/2022): < 5.00
Cc1nc(N2CCC3(CC2)COC(C)C3N)c(CO)nc1Sc1ccnc(N)c1Cl (stereo not given) | – | – | – | – | – | 6.39 and 6.34 and 6.43 | – | – | viability, T/C (compound 0.00949 µM): 82.5% and 83.1% and 76%; viability, T/C (compound 0.03 µM): 68.2% and 68.5% and 70.9%; viability, T/C (compound 0.0949 µM): 59.3% and 59.5% and 63.1%; viability, T/C (compound 0.3 µM): 54.2% and 53% and 54%; viability, T/C (compound 0.949 µM): 45.2% and 48% and 39.2%; viability, T/C (compound 3 µM): 36.6% and 38.9% and 36.2%
Cn1ncnc1[C@H]1c2n[nH]c(=O)c3cc(F)cc(c23)N[C@@H]1c1ccc(F)cc1 | 53.5% and 54.3% and 57.9% | 31.4% and 38.2% and 34.5% | – | – | – | 7.49 and 7.36 and 7.37 | 71.1% and 82.5% and 93.2% | 70.2% and 73% and 67.9% | viability, T/C (compound 0.000316 µM): 101% and 86.7% and 96.2%; viability, T/C (compound 0.001 µM): 86.5% and 84.3% and 90.5%
NC(=O)C(=Cn1cnc(-c2cc(C(F)(F)F)cc(C(F)(F)F)c2)n1)c1cncnc1 | – | – | – | – | – | 7.34 and 7.32 and 7.27 | – | – | viability, T/C (compound 0.000949 µM): 87.5% and 102% and 84.6%; viability, T/C (compound 0.003 µM): 85.7% and 110% and 93.3%; viability, T/C (compound 0.00949 µM): 101% and 108% and 96.6%; viability, T/C (compound 0.03 µM): 74.1% and 79.4% and 91.7%; viability, T/C (compound 0.0949 µM): 8.08% and 8.06% and 10.7%; viability, T/C (compound 0.3 µM): 3% and 0.88% and 1.21%
NC1CCC(NC2CC2c2ccccc2)CC1 (stereo not given) | 130% and 120% and 127% | 122% and 110% and 125% | – | – | – | < 7.00 | 118% and 117% and 122% | 127% and 125% and 122% | viability, T/C (compound 0.000316 µM): 128% and 119% and 118%; viability, T/C (compound 0.001 µM): 129% and 116% and 126%
O=C(c1cc(Cc2n[nH]c(=O)c3ccccc23)ccc1F)N1CCN(C(=O)C2CC2)CC1 | 99.2% and 96.5% and 98% | 113% and 117% and 108% | 102% and 115% and 97.6% | 98.8% and 98.3% and 107% | 19.2% and 17.5% and 20.8% | 5.29 and 5.30 and 5.27 | – | – | viability, T/C (compound 3.16 µM): 71.3% and 71.5% and 75.3%
O=C(c1ccc(F)c(F)c1Nc1ccc(I)cc1F)N1CC(O)([C@@H]2CCCCN2)C1 | 73.9% and 62.5% and 68.7% | 69.7% and 54.8% and 47.7% | 45.6% and 36.5% and 35.7% | 18.4% and 15.1% and 17.1% | – | 6.59 and 6.95 and 6.99 | 94% and 88.7% and 94.3% | 89.3% and 77.1% and 88.9% | –

— PubChem BioAssay AID1963447 (Molecular Pharmacology Branch, DTP, NCI, 2024)
